Patent US6120997A, “Nucleic acid binders having an hydroxyamine motif” (The Scripps Research Institute, priority 1998, dated 2000)
Entries after “also recorded” stand apart in the source; their conditions may differ. Read-outs that look alike come from different tables or passages of the source.

Columns and labels:
[1] = system: wt-RRE-II; assay: SPR binding of aminoglycosides to wt-RRE-II; set-up: species or system HIV-1; conditions: for dissociation from wt-RRE-II after 1 min (in words): aminoglycoside-free buffer, pH 7.4, 150 mM NaCl
Experimental: (§1) FIGS. 9A and 9B illustrate neomycin B binding to RBE3, RBE3-neg and wt-RRE-II. (A) Semilogarithmic plot. […] Conditions: pH 7.0, 10 mM HEPES, 150 mM NaCl, 0.1 mM EDTA, […].
(§2) FIGS. 10A and 10B illustrate paromomycin binding to RBE3, RBE3-neg and wt-RRE-II. (A) Semilogarithmic plot; the dashed line indicates the binding of neomycin B to wt-RRE-II for comparison (B) Scatchard plot. […] Conditions: pH 7.0, 10 mM HEPES, 150 mM NaCl, 0.1 mM EDTA, […].
FIG. 11 illustrates the kinetic stability of wt-RRE-II complexes with neomycin B vs. paromomycin. […] Data points were taken after 1 min of dissociation.
(§3) Binding of the aminoglycoside to all three RNA oligonucleotides is observed starting in the low nanomolar concentration range and is non-saturable over the concentration range investigated. […] The high degree of non-specific binding is not surprising considering that aminoglycosides are highly charged polycations that tend to associate nonspecifically with the polyanionic phosphate backbone of RNA. […] Data points corresponding to 0.5 or more equivalents of neomycin B represent equilibrium values and can be analyzed with respect to stoichiometry and affinity of aminoglycoside binding. […] Both sequences bind one molecule of neomycin B with submicromolar affinity followed by weaker association with several additional equivalents of the antibiotic.
(§4) Samples were prepared by serial dilutions from stock solutions in RNase free microfuge tubes (Ambion) and were centrifuged at 14000 rpm for degassing. Buffers were filtered through sterile 0.2 &m nylon membranes (Nalgene) under vacuum, except for BIA certified HBS buffer (Pharmacia Biosensor AB) which was used as obtained. All procedures for binding studies were automated as methods using repetitive cycles of sample injection and regeneration. Typically, buffer was injected in the first two cycles to establish a stable baseline value. Samples were injected at a flowrate of 5-10 &L/min using either the KINJECT or the COINJECT command. All aminoglycoside and Rev27 samples were injected from autoclaved 7 mm plastic vials that were capped with pierceable plastic crimp caps. To minimize carry over, samples were injected in order of increasing concentration. The running buffer was identical to the injection buffer, except for the salt dependence study where a single running buffer was used for all injections. Expected values for the equilibrium response of one equivalent of analyte were calculated from the relative molecular weight of the analyte and the immobilized RNA ligand in each flowcells. These values were adjusted by multiplying with a factor of 0.8 or 0.57 for Rev27 or aminoglycosides respectively. These factors arise from the different molar refractive indices of RNA and the analyte and were determined from the Scatchard plot x-axis intercepts of the 1:1 binding isotherms for Rev27 and neomycin B.
Binding Studies with Aminoglycosides.
Neomycin B sulfate (Fluka) was converted to the free base by passing it through Amberlite IRA 400 (OH-- form) and purified by ion exchange chromatography on Dowex 1-X2 100 to remove neomycin C; the purity of neomycin B was verified by NMR in D2 O. Paromomycin sulfate was obtained from Sigma and used as received. Samples were prepared by dilution from 10 mM stock solutions in injection buffer (10 mM HEPES, pH 7.4, 150 mM NaCl, 3.4 mM EDTA). Data points were taken after an association phase of 30 min. A 2 min regeneration pulse of 150 mM Na2 SO4 in injection buffer was used between injections. […]

[2] = system: Neo16-bd; assay: SPR binding of aminoglycosides to Neo16-bd aptamer
Experimental: Conditions: 10 mM HEPES (pH 7.4), 0.1 mM EDTA and NaCl as indicated.
The binding of aminoglycosides to RNA is likely to involve substantial ionic contributions and therefore should be strongly influenced by competing buffer ions. […] We studied the salt dependence of neomycin B binding to RBE3, RBE3-neg and Neo16-bd (FIG. 14) by varying the concentration of NaCl included in the injection buffer (10 mM HEPES, pH 7.4, 0.1 mM EDTA). […] This neomycin binding motif was obtained by in vitro selection under conditions of high ionic strength.
To further improve our understanding of specific aminoglycoside recognition, we have also included an artificial aminoglycoside receptor that was evolved in vitro to recognize an aminoglycoside. A number of RNA aptamers for small molecules have been reported in recent years. Among them are aptamers that recognize the aminoglycosides tobramycin, lividomycin and kanamycin.
For comparison, the corresponding values for AS-wt are also included.
(§5) General Procedures for SPR Binding Studies done in Example 5. Samples were prepared by serial dilutions from stock solutions in RNase free microfuge tubes (Ambion) and were centrifuged at 14000 rpm for degassing. Unless otherwise noted, all binding studies were carried out using HBS buffer (Pharmacia Biosensor AB) which was used as obtained. All procedures for binding studies were automated as methods using repetitive cycles of sample injection and regeneration. Typically, buffer was injected in the first two cycles to establish a stable baseline value. Samples were injected at a flowrate of […] using either the KINJECT command. All aminoglycoside samples were injected from autoclaved 7 mm plastic vials that were capped with pierceable plastic crimp caps. To minimize carry over, samples were injected in order of increasing concentration. The running buffer was identical to the injection buffer.

[3] = molecular target: RBE3-neg; assay: SPR binding of aminoglycosides to RBE3-neg; conditions: 25 C; for Kd: pH 7.0, 10 mM HEPES, 150 mM NaCl, 0.1 mM EDTA, Scatchard slope; for Scatchard plot x-axis intercept (RBE3-neg): pH 7.0, 150 mM NaCl
Experimental: as §1, §2, §3, §4
(§6) Binding Studies with Aminoglycosides. […]

[4] = system: wt-RRE-II, RBE3 and RBE3-neg; assay: SPR binding of aminoglycosides to RRE related RNAs; set-up: species or system HIV-1
Experimental: Samples were prepared by serial dilutions from stock solutions in RNase free microfuge tubes (Ambion) and were centrifuged at 14000 rpm for degassing. […] All procedures for binding studies were automated as methods using repetitive cycles of sample injection and regeneration. Typically, buffer was injected in the first two cycles to establish a stable baseline value. […] To minimize carry over, samples were injected in order of increasing concentration.
as §5

[5] = molecular target: RBE3; assay: SPR binding of aminoglycosides to RBE3; set-up: species or system HIV-1; conditions: 25 C; for Kd: pH 7.0, 10 mM HEPES, 150 mM NaCl, 0.1 mM EDTA, Scatchard slope; for Scatchard plot x-axis intercept (RBE3): pH 7.0, 150 mM NaCl
Experimental: as §1, §2, §3, §4, §6

Compound | dissociation from wt-RRE-II after 1 min (in words) [1] | discrimination between paromomycin and neomycin derivatives of the same charge, Neo16bd [2] | Kd ([3]; read-out: Kd (RBE3-neg), paromomycin) [nM] | Scatchard plot x-axis intercept (RBE3-neg) [3] | lower affinity compared to neomycin B ([4]; wt-RRE-II, RBE3 and RBE3-neg, equilibrium binding) | Kd ([5]; read-out: Kd (RBE3), paromomycin) [nM] | Scatchard plot x-axis intercept (RBE3) [5] | number of molecules/sites bound with submicromolar affinity (wt-RRE-II) ([1]; SPR) | relative binding affinity for wt-RRE-II (in words) ([1]; comparison of aminoglycosides) | selectivity for binding Neo16-bd vs. RBE3 or RBE3-neg ([2]; 250 mM NaCl, 10 mM HEPES, pH 7.4, 0.1 mM EDTA) | specificity of Neo16bd relative to RBE3 ([2]; HBS buffer + 150 mM NH4Cl) | Kd ([2]; HBS buffer + 150 mM NH4Cl, read-out: Kd, Neo16bd, high salt) [nM] | Kd ([3]; read-out: Kd (RBE3-neg), neomycin B) [nM] | discrimination between the three RRE related sequences (in words) [4] | weaker binding to the three RRE related RNAs than to AS-wt [4] [fold] | Kd ([5]; read-out: Kd (RBE3), neomycin B) [nM]
NC[C@@H]1O[C@H](O[C@H]2[C@@H](O)[C@H](O[C@@H]3[C@@H](O)[C@H](N)C[C@H](N)[C@H]3O[C@H]3O[C@H](CO)[C@@H](O)[C@H](O)[C@H]3N)O[C@@H]2CO)[C@H](N)[C@@H](O)[C@@H]1O [Paromomycin] | No apparent 1:1 binding isotherm is discernible | greater than 20 fold | 3100 | 1.05 | approximately 15 fold | 2800 | 1.04 |  |  |  |  |  |  |  |  | 
NC[C@@H]1O[C@H](O[C@H]2[C@@H](O)[C@H](O[C@@H]3[C@@H](O)[C@H](N)C[C@H](N)[C@H]3O[C@H]3O[C@H](CN)[C@@H](O)[C@H](O)[C@H]3N)O[C@@H]2CO)[C@H](N)[C@@H](O)[C@@H]1O [Neomycin B] | apparent 1:1 binding isotherm |  |  | 0.98 |  |  | 1.01 | three different sites, each with a submicromolar dissociation constant; also recorded: three molecules of neomycin B are bound with submicromolar affinity; also recorded: up to three molecules | highest affinity | approximately 100 fold | greater than 300 fold | < 10 | 160 | no discrimination | 12 | 210
